Laboratory results from patent US20210228463A1, “COMPOSITION FOR FAT FORMATION INHIBITION AND BODY FAT REDUCTION, CONTAINING HYDRANGENOL AS ACTIVE INGREDIENT” (COSMAX BIO CO., LTD., priority 2019, published 2021).

Key:
[1] = tested on: mammalian target of rapamycin (mTOR); assay: Western blotting of p-mTOR in adipocytes; format: cell-based; conditions: 3T3-L1 differentiated for 10 days, hydrangenol 2.5 ug/ml, 24 hours, FIG. 3
Procedure: The mechanism of reducing triglyceride in adipocytes was examined for the hydrangenol-containing hydrangea (Hydrangea serrata) and hydrangenol. A pre-adipocyte 3T3-L1 was differentiated for 10 days and treated with hydrangea (Hydrangea serrata) (25 ug/ml) and hydrangenol (2.5 ug/ml) for 24 hours, respectively. Thereafter, the cells were lysed using a modified LIPA buffer, and each 20 ug thereof was used for analysis. p-mTOR(ab109268, Abcam), p-FOXO1(9461S, Cell Signaling), PPARγ(sc-7273, Santa Cruz), and β-actin(A5316, Sigma) primary antibodies were used for analysis, respectively.

[2] = Body weight- and fat-reducing effects of HG in obese mice; format: in vivo; conditions: obese mice (HFD); for changes in the body weight: oral administration at the same time with induction of obesity, 5 days per week for 12 weeks, FIG. 13; for body fat (dual-energy X-ray absorptiometry, fat weight): oral administration, 12 weeks, FIGS. 14 and 15
Procedure: To analyze in vivo anti-obesity efficacy of HG, animal models of obesity were prepared. 8-week-old male C57BL/6N mice (SPF grade, 20±2 g, Orient Bio) were set into 7 groups as follows, and 10 mice per each group were tested: as normal control groups, normal mice (con) with no high fat diet and no administration, and obese mice (HFD) with induction of obesity by 30% high fat diet and no administration, and as a positive control group, obese mice with oral administration of orlistat which is an anti-obesity agent. As experimental groups, obese mice with oral administration of HG of 20 mg/kg, 40 mg/kg, or 80 mg/kg, and normal mice with oral administration of HG of 80 mg/kg were used. Mice were administered with HG at the same time with induction of obesity, and HG was administered for 5 days per week for 12 weeks. A dark: light cycle was maintained at intervals of 12 hours: 12 hours, and mice were allowed to free access to water. An experiment was performed to analyze whether the body weight and fat of mice decreased when HG was administered. […] In addition, images of a fat distribution and body fat contents of mice of each experimental group were measured by dual-energy X-ray absorptiometry in the last week of the animal test. Each mice was sacrificed, and a visceral adipose tissue including epididymal fat was separated and a fat was weighed. The experimental results were tested for a significant difference between groups using a t-test in the Sigma plot statistical program (p#<0.05 vs normal control, p*<0.05, r<0.01, P***<0.001 vs obese group). As a result, it was confirmed that body fat was decreased in the positive control group and the HG-administered group (FIGS. 14 and 15).

white adipocytes = assay: Adipocyte size-reducing effects of HG; format: in vivo, mice; conditions: epididymal fat, HG administered; FIG. 16
Procedure: (§1) To analyze in vivo anti-obesity efficacy of HG, animal models of obesity were prepared. 8-week-old male C57BL/6N mice (SPF grade, 20±2 g, Orient Bio) were set into 7 groups as follows, and 10 mice per each group were tested: as normal control groups, normal mice (con) with no high fat diet and no administration, and obese mice (HFD) with induction of obesity by 30% high fat diet and no administration, and as a positive control group, obese mice with oral administration of orlistat which is an anti-obesity agent. As experimental groups, obese mice with oral administration of HG of 20 mg/kg, 40 mg/kg, or 80 mg/kg, and normal mice with oral administration of HG of 80 mg/kg were used. Mice were administered with HG at the same time with induction of obesity, and HG was administered for 5 days per week for 12 weeks. A dark: light cycle was maintained at intervals of 12 hours: 12 hours, and mice were allowed to free access to water.
For histological analysis, the epididymal fat tissues of mice were fixed in 4% paraformalin. Dehydration was performed several times through graded alcohol series and washing, and each tissue was embedded in paraffin. Each tissue section was cut at a thickness of 4 μm, and stained with hematoxylin and eosin. In order to examine the size of white adipocytes, the adipocyte area of each section was measured with cellSence software (Olympus Co., USA). […]

[3] = Effects of HG on liver and kidney (serum GOT, GPT, BUN); format: in vivo, mice
Procedure: as §1, with “water. To examine whether HG induced liver and kidney damage, glutamic oxalacetic transaminase (GOT), glutamic pyruvate transaminase (GPT), and blood urea nitrogen (BUN) were measured by serum analysis using a biochemical analyzer (AU480 Chemistry Analyzer, Beckman coulter, Calif., USA).” for “water.”

[4] = Changes of blood triglyceride and blood cholesterol by HG; format: in vivo, mice; conditions: blood
Procedure: as §1, with “water. To analyze the effects of HG on blood triglyceride and blood cholesterol, a hematological-biochemical test was performed using a biochemical analyzer (AU480 Chemistry Analyzer, Beckman coulter, Calif., USA).” for “water.”

[5] = HG-administered group, Table 4 and FIG. 17
[6] = obese mice (HFD) + HG 20 mg/kg oral, 12 weeks
[7] = obese mice (HFD) + HG 40 mg/kg oral, 12 weeks
[8] = obese mice (HFD) + HG 80 mg/kg oral, 12 weeks
[9] = serum, obese mice (HFD) + oral orlistat
[10] = obese mice (HFD) + oral orlistat

O=C1OC(c2ccc(O)cc2)Cc2cccc(O)c21 (stereo not shown) [HG, 8-hydroxy-3-(4-hydroxyphenyl)-3,4-dihydroisochromen-1-one]
phosphorylation of mammalian target of rapamycin (mTOR) [1]: reduce | changes in the body weight [2]: body weight-reducing effects were observed | body fat (dual-energy X-ray absorptiometry, fat weight) [2]: decreased | adipocyte size (white adipocytes): reduced | GOT, GPT and BUN, difference between 7 groups ([3]; mouse, in vivo): no significant difference | HDL level ([4]; HG-administered group, Table 4): no significant difference | triglyceride level ([4]; HG-administered group, Table 4): no significant difference | LDL [4, 5]: reduction | total cholesterol [4, 5]: reduction | CHOL ([4]; normal mice + HG 80 mg/kg oral): 96.20 mg/dL | HDL ([4]; normal mice + HG 80 mg/kg oral): 66.40 mg/dL | LDL ([4]; normal mice + HG 80 mg/kg oral): 5.70 mg/dL | TG ([4]; normal mice + HG 80 mg/kg oral): 80.10 mg/dL | CHOL [4, 6]: 126.78 mg/dL | HDL [4, 6]: 80.78 mg/dL | LDL [4, 6]: 7.78 mg/dL | TG [4, 6]: 74.63 mg/dL | CHOL [4, 7]: 112.56 mg/dL | HDL [4, 7]: 71.89 mg/dL | LDL [4, 7]: 7.38 mg/dL | TG [4, 7]: 58.89 mg/dL | CHOL [4, 8]: 110.14 mg/dL | HDL [4, 8]: 71.20 mg/dL | LDL [4, 8]: 7.13 mg/dL | TG [4, 8]: 63.78 mg/dL

CCCCCCCCCCC[C@@H](C[C@@H]1OC(=O)[C@H]1CCCCCC)OC(=O)[C@H](CC(C)C)NC=O [Orlistat, orlistat]
changes in the body weight [2]: body weight-reducing effects were observed | body fat (dual-energy X-ray absorptiometry, fat weight) [2]: decreased | BUN [3, 9]: 19.89 mg/dL | GOT [3, 9]: 63 U/L | GPT [3, 9]: 17.6 U/L | CHOL [4, 10]: 115.63 mg/dL | HDL [4, 10]: 83.70 mg/dL | LDL [4, 10]: 8.60 mg/dL | TG [4, 10]: 76.40 mg/dL
